A word on the IC50: it is the concentration that gives 50% inhibition. Low readings indicate inhibition by little substance, high ones a need for much substance.

SMILES strings stand for the structures.

IC50 data for 45 compounds are collected here from patent EP2061765B1, “Serine-threonine protein kinase and PARP modulators” (Senhwa Biosciences, Inc., priority 2006, dated 2008).

Common to all, as to assay: Cell proliferation assay (Alamar Blue)
Holding throughout (type): cell-based
For orientation: Alamar Blue is a resazurin reagent that responds to reducing activity.

One assay deals with MDAMB231. The conditions noted are these: Homo sapiens, MDA-MB-231, 96 h, MDAMB231 cells, four days. The protocol:
(§1) A representative cell-proliferation assay protocol using Alamar Blue dye (stored at 4°C, use 20ul per well) is described hereafter. 96-well plate setup and compound treatment • a. Split and trypsinize cells. • b. Count cells using hemocytometer. • c. Plate 4,000-5,000 cells per well in 100 µl of medium and seed into a 96-well plate according to the following plate layout. Add cell culture medium only to wells B10 to B12. Wells B1 to B9 have cells but no compound added. [formula] [formula] • d. Add 100 µl of 2X drug dilution to each well in a concentration shown in the plate layout above. At the same time, add 100 µl of media into the control wells (wells B10 to B12). Total volume is 200 µl/well. • e. Incubate four (4) days at 37°C, 5% CO2 in a humidified incubator. • f. Add 20µl Alamar Blue reagent to each well. • g. Incubate for four (4) hours at 37°C, 5% CO2 in a humidified incubator. • h. Record fluorescence at an excitation wavelength of 544nm and emission wavelength of 590nm using a microplate reader.
(§2) In the assays, cells are cultured with a test compound for approximately four days, the dye then is added to the cells and fluorescence of […] dye is detected after approximately four hours. Different types of cells can be utilized in the assays (e.g., HCT-116 human colorectal carcinoma cells, PC-3 human prostatic cancer cells and MiaPaca human pancreatic carcinoma cells). Anti-proliferative effects of representative compounds are provided hereafter.

The subject of the next assay is BxPC3. Particulars: Homo sapiens, BXPC-3, 96 h, BxPC3 cells, four days. As for the experimental part: as §1, §2
In the next assay the test system is PanC1. The conditions noted are these: Homo sapiens, PANC-1, 96 h, PanC1 cells, four days. The protocol: as §1, §2

`CN(C)CCNc1ncc2c(n1)c(Nc1ccc(F)c(Cl)c1)nc1cc(C(=O)O)ccc12` [drawing 432]: in the assay on MDAMB231, the IC50 is above 50 µM.
For the compound `O=C(O)c1ccc2c(c1)nc(Nc1ccc(F)c(Cl)c1)c1nc(NCc3ccccn3)ncc12` [drawing 433], it took 33.7 µM to reach half-maximal inhibition with MDAMB231 (IC50).
The compound `COC(CNc1ncc2c(n1)c(Nc1ccc(F)c(Cl)c1)nc1cc(C(=O)O)ccc12)OC` [drawing 434] registered a half-maximal inhibitory concentration (IC50) with MDAMB231 of 25.4 µM.
The same measure, in the same setting: for `NC(=O)c1ccc2c(c1)nc(Nc1cccc(C(F)(F)F)c1)c1nc(NC3CC3)ncc12` [drawing 435] the value was above 50 µM; for `O=C(NC1CC1)c1ccc2c(c1)nc(Nc1cccc(C(F)(F)F)c1)c1nc(NC3CC3)ncc12` [drawing 436], 39.8 µM; for `CNC(=O)c1ccc2c(c1)nc(Nc1cccc(C(F)(F)F)c1)c1nc(NC3CC3)ncc12` [drawing 437], 10.5 µM.
For the compound `O=C(O)c1ccc2c(c1)nc(Nc1ccc(F)c(Cl)c1)c1nc(NCc3cccnc3)ncc12` [drawing 438], in the assay with MDAMB231, the IC50 came to 5.48 µM.
Compound `O=C(O)c1ccc2c(c1)nc(Nc1ccc(F)c(Cl)c1)c1nc(NCc3ccncc3)ncc12` [drawing 439] registered an IC50 in the assay with MDAMB231 of 12.1 µM.
Still for that read-out and setting: the same measure for `O=C(O)c1ccc2c(c1)nc(Nc1ccccc1)c1nc(Nc3ccccc3)ncc12` [drawing 440]: 19.2 µM; for `CC(C)OC(=O)Nc1ccc2c(c1)nc(Nc1cccc(C(F)(F)F)c1)c1nc(NC3CC3)ncc12` [drawing 441]: 4.27 µM; for `CCOC(=O)CCNC(=O)c1ccc2c(c1)nc(Nc1cccc(C(F)(F)F)c1)c1nc(NC3CC3)ncc12` [drawing 442]: 2.52 µM.
With `O=C(O)c1ccc2c(c1)nc(Nc1ccc(F)c(Cl)c1)c1ncncc12` [drawing 445], the IC50 with BxPC3 came to 3.55 µM; with PanC1 it was 3.37 µM.
In the assay with PanC1, `Fc1cccc(Nc2nc3cc(-c4nnn[nH]4)ccc3c3cnccc23)c1` [drawing 453] displayed an IC50 above 50 µM.
`Fc1cc(Nc2nc3cc(-c4nnn[nH]4)ccc3c3cnccc23)ccc1Cl` [drawing 454]: the IC50 with PanC1 was above 50 µM.
The same measure, in the same setting: the same measure for `Clc1cccc(Nc2nc3cc(-c4nnn[nH]4)ccc3c3cnccc23)c1` [drawing 458]: above 50 µM.
With `O=C(O)c1ccc2c(c1)nc(Nc1ccccc1)c1nc(NC3CC3)ncc12` [drawing 461], the results for the IC50 in the assay with BxPC3 and in the assay on PanC1 were 2.16 µM and 5.02 µM, respectively.
On the same counts, the results for `CCCNc1ncc2c(n1)c(Nc1ccccc1)nc1cc(C(=O)O)ccc12` [drawing 462] are 5.83 µM and 4.28 µM.
On to `COCCNc1ncc2c(n1)c(Nc1ccccc1)nc1cc(C(=O)O)ccc12` [drawing 463], for which the IC50 with BxPC3 was determined as 3.92 µM; with PanC1, 32.6 µM.
For the compound `O=C(O)c1ccc2c(c1)nc(Nc1ccccc1)c1nc(NCCO)ncc12` [drawing 464], the concentration for half-maximal inhibition (IC50) with BxPC3 was 23.5 µM; in the assay with PanC1, above 50 µM.
Consider `O=C(O)c1ccc2c(c1)nc(Nc1ccccc1)c1nc(NCCCO)ncc12` [drawing 465], for which the IC50 in the assay with BxPC3 came out at 9.41 µM; with PanC1, 34.2 µM.
For `O=C(O)c1ccc2c(c1)nc(Nc1ccccc1)c1nc(NC3CCNCC3)ncc12` [drawing 466], the IC50 in the assay on BxPC3 is 8.36 µM; in the assay on PanC1, above 50 µM.
On the same counts, the results for `CCN(CC)CCNc1ncc2c(n1)c(Nc1ccccc1)nc1cc(C(=O)O)ccc12` [drawing 467] are 10.7 µM and above 50 µM.
Taken in the same sequence, the figures for `O=C(O)c1ccc2c(c1)nc(Nc1ccccc1)c1nc(NCCN3CCOCC3)ncc12` [drawing 468] were 4.67 µM and 27.4 µM.
On the same counts, the results for `O=C(O)c1ccc2c(c1)nc(Nc1ccccc1)c1nc(NCCCN3CCOCC3)ncc12` [drawing 469] are 1.65 µM and above 50 µM.
As to `C#Cc1cccc(Nc2nc3cc(C(=O)O)ccc3c3cnc(NC4CC4)nc23)c1` [drawing 470], the IC50 was 1.05 µM in the assay with BxPC3 and 5.79 µM in the assay with PanC1.
On the same counts, the results for `C#Cc1cccc(Nc2nc3cc(C(=O)O)ccc3c3cnc(NCCC)nc23)c1` [drawing 471] are 3 µM and 8.12 µM.
Regarding `C#Cc1cccc(Nc2nc3cc(C(=O)O)ccc3c3cnc(NCCOC)nc23)c1` [drawing 472], the values for the IC50 in the assay on BxPC3 and with PanC1 were 1.17 µM and 4.61 µM, respectively.
As for `C#Cc1cccc(Nc2nc3cc(C(=O)O)ccc3c3cnc(NC4CCNCC4)nc23)c1` [drawing 473], the IC50 with BxPC3 was 25.3 µM; with PanC1 it was above 50 µM.
`C#Cc1cccc(Nc2nc3cc(C(=O)O)ccc3c3cnc(NCCCN4CCOCC4)nc23)c1` [drawing 474]: the IC50 in the assay on BxPC3 was determined as 3.6 µM; in the assay with PanC1, 11.2 µM.
For `C#Cc1cccc(Nc2nc3cc(C(=O)O)ccc3c3cnc(NC)nc23)c1` [drawing 475], the values for the IC50 in the assay with BxPC3 and in the assay with PanC1 were 1.6 µM and 13.8 µM, respectively.
Taken in the same sequence, the figures for `O=C(O)c1ccc2c(c1)nc(Nc1ccc(Cl)c(C(F)(F)F)c1)c1ccncc12` [drawing 476] were 2.6 µM and 17.9 µM.
For `O=C(O)c1ccc2c(c1)nc(Nc1cccc(Cl)c1)c1nc(NC3CC3)ncc12` [drawing 477], the IC50 with BxPC3 is 1.95 µM; in the assay with PanC1, 4.61 µM.
On the same counts, the results for `O=C(O)c1ccc2c(c1)nc(Nc1cccc(C(F)(F)F)c1)c1ncncc12` [drawing 478] are 4.31 µM and 35.2 µM.
On to `CCOc1ncc2c(n1)c(Nc1cccc(C(F)(F)F)c1)nc1cc(C(=O)O)ccc12` [drawing 479], for which the values for the IC50 in the assay on BxPC3 and with PanC1 were 49.6 µM and above 50 µM, respectively.
As for `CNc1ncc2c(n1)c(Nc1cccc(Cl)c1)nc1cc(C(=O)O)ccc12` [drawing 480], the IC50 worked out at 2.56 µM with BxPC3 and 8.3 µM with PanC1.
Turning to `CN(C)c1ncc2c(n1)c(Nc1cccc(Cl)c1)nc1cc(C(=O)O)ccc12` [drawing 481], the values for the IC50 with BxPC3 and in the assay on PanC1 were 42.7 µM and above 50 µM, respectively.
Taken in the same sequence, the figures for `Nc1ncc2c(n1)c(Nc1cccc(Cl)c1)nc1cc(C(=O)O)ccc12` [drawing 482] were 0.61 µM and 3.62 µM.
Take `CC(C)Nc1ncc2c(n1)c(Nc1cccc(Cl)c1)nc1cc(C(=O)O)ccc12` [drawing 483]: the concentration for half-maximal inhibition (IC50) with BxPC3 is 36.9 µM; in the assay with PanC1 it was 33.2 µM.
`O=C(O)c1ccc2c(c1)nc(Nc1cccc(C(F)(F)F)c1)c1nc(NC3CC3)ncc12` [drawing 484]: the results for the IC50 in the assay with BxPC3 and in the assay on PanC1 were 10 µM and 2.03 µM, respectively.
Take `CCNc1ncc2c(n1)c(Nc1cccc(Cl)c1)nc1cc(C(=O)O)ccc12` [drawing 485]: the IC50 in the assay on BxPC3 was determined as 2.37 µM; in the assay on PanC1 it was 1.61 µM.
`CNc1ncc2c(n1)c(Nc1ccc(F)c(Cl)c1)nc1cc(C(=O)O)ccc12` [drawing 486]: the results for the IC50 in the assay with BxPC3 and with PanC1 were 1.46 µM and above 50 µM, respectively.
Regarding `Nc1ncc2c(n1)c(Nc1ccc(F)c(Cl)c1)nc1cc(C(=O)O)ccc12` [drawing 487], the IC50 is 0.7 µM with BxPC3 and 8.03 µM in the assay on PanC1.
Consider `O=C(O)c1ccc2c(c1)nc(Nc1ccc(F)c(Cl)c1)c1nc(NC3CC3)ncc12` [drawing 488], for which the IC50 in the assay on BxPC3 came out at 9.48 µM; in the assay on PanC1, 8.53 µM.
For `COCCNc1ncc2c(n1)c(Nc1ccc(F)c(Cl)c1)nc1cc(C(=O)O)ccc12` [drawing 489], the values for the IC50 with BxPC3 and in the assay with PanC1 were 1.61 µM and above 50 µM, respectively.
As to `O=C(O)c1ccc2c(c1)nc(Nc1ccc(F)c(Cl)c1)c1nc(NCc3ccncc3)ncc12` [drawing 511], the IC50 in the assay with BxPC3 stood at 7.33 µM.
